In patent publication US6355799B1, “Substituted benzene compounds, process for their preparation, and herbicidal and defoliant compositions containing them” (ISK Americas Incorporated, priority 1997, dated 2002):

What was measured:
Assay type in all cases: in vivo
[1] = system: upland rice (Oryza sp., var. Tebonnet, RICE); test: Post-emerge test, crop safety; details: post-emerge, 14 days after application, rating scale 0-100
Outline: (§1)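 Visual ratings on a 0-100 scale (0 no damage, 100 all plants dead) were taken at 14 days after treatment. Rates of 15-1000 g ai/ha in acetone, 187 l/ha, were sprayed onto soil one day after planting (pre-emerge) or onto 2-3 leaf plants with 0.25% v/v surfactant (post-emerge).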

[2] = system: field corn (Zea mays L., var. Dekalb 535, CORN); test: Post-emerge test, crop safety; details: post-emerge, 14 days after application, rating scale 0-100
Outline: as §1

[3] = system: redroot pigweed (Amaranthus retroflexus, AMARE); test: Pre-emerge test, greenhouse herbicide activity screening; details: pre-emerge, 14 days after application, scale 0-100
Outline: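 Compounds in acetone were track-sprayed at 15-1000 g ai/ha (187 l/ha) on sandy loam pots: pre-emerge one day after seeding, post-emerge at 2-3 leaf stage with 0.25% v/v non-ionic surfactant. Phytotoxicity was rated 14 days later on a 0 (no damage) to 100 (complete death) scale.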

[4] = system: redroot pigweed (Amaranthus retroflexus, AMARE); test: Post-emerge test, greenhouse herbicide activity screening; details: post-emerge, 14 days after application, rating scale 0-100
Outline: (§2)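 Plants grown in 10 cm pots of sandy loam mix received acetone-dissolved compounds through a moving flat-fan nozzle. Doses ranged from 15 to 1000 g ai/ha. Pre-emerge pots were seeded one day earlier, post-emerge pots 8–21 days earlier. Fourteen days on, each pot was graded 0–100 for damage.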

[5] = system: johnsongrass (Sorghum halepense, SORHA); test: as above; details: post-emerge, 14 days after application, rating scale 0-100
Outline: as §2

[6] = system: green foxtail (Setaria viridis, SETVI); test: as above; details: post-emerge, 14 days after application, rating scale 0-100
Outline: as §2

[7] = system: barnyardgrass (Echinochloa crus-galli, ECHCG); test: as above; details: post-emerge, 14 days after application, rating scale 0-100
Outline: as §2

[8] = system: velvetleaf (Abutilon theophrasti, ABUTH); test: as above; details: post-emerge, 14 days after application, rating scale 0-100
Outline: as §2

[9] = system: ivyleaf morningglory (Ipomoea hederacea, IPOHE); test: as above; details: post-emerge, 14 days after application, rating scale 0-100
Outline: as §2

[10] = system: large crabgrass (Digitaria sanguinalis, DIGSA); test: as above; details: post-emerge, 14 days after application, rating scale 0-100
Outline: as §2

[11] = system: sicklepod (Cassia obtusifolia, CASOB); test: as above; details: post-emerge, 14 days after application, rating scale 0-100
Outline: as §2

[12] = system: lambsquarters (Chenopodium album, CHEAL); test: as above; details: post-emerge, 14 days after application, rating scale 0-100
Outline: as §2

[13] = system: upland rice (Oryza sp., var. Tebonnet, RICE); test: Pre-emerge test, crop safety; details: pre-emerge, 14 days after application, scale 0-100
Outline: as §1

[14] = system: field corn (Zea mays L., var. Dekalb 535, CORN); test: Pre-emerge test, crop safety; details: pre-emerge, 14 days after application, scale 0-100
Outline: as §1

[15] = system: johnsongrass (Sorghum halepense, SORHA); test: Pre-emerge test, greenhouse herbicide activity screening; details: pre-emerge, 14 days after application, scale 0-100
Outline: as §1

[16] = system: green foxtail (Setaria viridis, SETVI); test: as above; details: pre-emerge, 14 days after application, scale 0-100
Outline: as §1

[17] = system: barnyardgrass (Echinochloa crus-galli, ECHCG); test: as above; details: pre-emerge, 14 days after application, scale 0-100
Outline: as §1

[18] = system: velvetleaf (Abutilon theophrasti, ABUTH); test: as above; details: pre-emerge, 14 days after application, scale 0-100
Outline: as §1

[19] = system: ivyleaf morningglory (Ipomoea hederacea, IPOHE); test: as above; details: pre-emerge, 14 days after application, scale 0-100
Outline: as §1

[20] = system: large crabgrass (Digitaria sanguinalis, DIGSA); test: as above; details: pre-emerge, 14 days after application, scale 0-100
Outline: as §1

[21] = system: sicklepod (Cassia obtusifolia, CASOB); test: as above; details: pre-emerge, 14 days after application, scale 0-100
Outline: as §1

[22] = system: lambsquarters (Chenopodium album, CHEAL); test: as above; details: pre-emerge, 14 days after application, scale 0-100
Outline: as §1

CCOC(=O)CSCC(=O)Nc1c(OC)c(Cl)cc(F)c1-n1c(=O)cc(C(F)(F)F)n(C)c1=O [2-170]
50: IPOHE phytotoxicity rating ([9]; 63 g ai/ha) | CHEAL phytotoxicity rating ([12]; 250 g ai/ha) | phytotoxicity rating ECHCG ([17]; 250 g ai/ha)
40: phytotoxicity rating IPOHE ([19]; 63 g ai/ha)
5: RICE phytotoxicity rating (crop damage) ([1]; 63 g ai/ha) | CORN phytotoxicity rating (crop damage) ([2]; 63 g ai/ha)
90: ABUTH phytotoxicity rating ([8]; 250 g ai/ha) | phytotoxicity rating SETVI ([16]; 250 g ai/ha) | phytotoxicity rating ABUTH ([18]; 63 g ai/ha) | phytotoxicity rating DIGSA ([20]; 250 g ai/ha)
15: CORN phytotoxicity rating (crop damage) ([2]; 250 g ai/ha) | phytotoxicity rating CORN (crop damage) ([14]; 250 g ai/ha)
10: RICE phytotoxicity rating (crop damage) ([1]; 250 g ai/ha) | SORHA phytotoxicity rating ([5]; 250 g ai/ha) | SETVI phytotoxicity rating ([6]; 63 g ai/ha) | CASOB phytotoxicity rating ([11]; 63 g ai/ha) | phytotoxicity rating RICE (crop damage) ([13]; 63 g ai/ha) | phytotoxicity rating CORN (crop damage) ([14]; 63 g ai/ha)
20: AMARE phytotoxicity rating ([4]; 63 g ai/ha) | SETVI phytotoxicity rating ([6]; 250 g ai/ha) | ECHCG phytotoxicity rating ([7]; 250 g ai/ha) | phytotoxicity rating SORHA ([15]; 63 g ai/ha)
80: phytotoxicity rating SORHA ([15]; 250 g ai/ha)
100: phytotoxicity rating AMARE ([3]; 250 g ai/ha) | phytotoxicity rating ABUTH ([18]; 250 g ai/ha) | phytotoxicity rating CHEAL ([22]; 63 g ai/ha) | phytotoxicity rating CHEAL ([22]; 250 g ai/ha)
0: SORHA phytotoxicity rating ([5]; 63 g ai/ha) | ECHCG phytotoxicity rating ([7]; 63 g ai/ha) | DIGSA phytotoxicity rating ([10]; 63 g ai/ha) | phytotoxicity rating RICE (crop damage) ([13]; 250 g ai/ha) | phytotoxicity rating ECHCG ([17]; 63 g ai/ha)
70: phytotoxicity rating AMARE ([3]; 63 g ai/ha) | phytotoxicity rating IPOHE ([19]; 250 g ai/ha)
30: AMARE phytotoxicity rating ([4]; 250 g ai/ha) | DIGSA phytotoxicity rating ([10]; 250 g ai/ha) | phytotoxicity rating DIGSA ([20]; 63 g ai/ha) | phytotoxicity rating CASOB ([21]; 63 g ai/ha)
95: IPOHE phytotoxicity rating ([9]; 250 g ai/ha)
35: ABUTH phytotoxicity rating ([8]; 63 g ai/ha)
60: CASOB phytotoxicity rating ([11]; 250 g ai/ha) | CHEAL phytotoxicity rating ([12]; 63 g ai/ha) | phytotoxicity rating SETVI ([16]; 63 g ai/ha) | phytotoxicity rating CASOB ([21]; 250 g ai/ha)

CCOC(=O)C(C)SCC(=O)Nc1c(OC)c(Cl)cc(F)c1-n1c(=O)cc(C(F)(F)F)n(C)c1=O (stereo not drawn) [2-171]
60: ABUTH phytotoxicity rating ([8]; 63 g ai/ha) | IPOHE phytotoxicity rating ([9]; 63 g ai/ha) | phytotoxicity rating IPOHE ([19]; 250 g ai/ha)
90: CHEAL phytotoxicity rating ([12]; 250 g ai/ha) | phytotoxicity rating SETVI ([16]; 250 g ai/ha) | phytotoxicity rating ABUTH ([18]; 63 g ai/ha)
80: phytotoxicity rating DIGSA ([20]; 250 g ai/ha)
20: phytotoxicity rating DIGSA ([20]; 63 g ai/ha)
50: phytotoxicity rating AMARE ([3]; 63 g ai/ha) | AMARE phytotoxicity rating ([4]; 250 g ai/ha)
10: RICE phytotoxicity rating (crop damage) ([1]; 250 g ai/ha) | CORN phytotoxicity rating (crop damage) ([2]; 250 g ai/ha) | SORHA phytotoxicity rating ([5]; 250 g ai/ha) | SETVI phytotoxicity rating ([6]; 250 g ai/ha) | DIGSA phytotoxicity rating ([10]; 250 g ai/ha) | phytotoxicity rating RICE (crop damage) ([13]; 250 g ai/ha) | phytotoxicity rating SORHA ([15]; 63 g ai/ha) | phytotoxicity rating ECHCG ([17]; 250 g ai/ha) | phytotoxicity rating IPOHE ([19]; 63 g ai/ha) | phytotoxicity rating CASOB ([21]; 63 g ai/ha)
0: RICE phytotoxicity rating (crop damage) ([1]; 63 g ai/ha) | CORN phytotoxicity rating (crop damage) ([2]; 63 g ai/ha) | SORHA phytotoxicity rating ([5]; 63 g ai/ha) | SETVI phytotoxicity rating ([6]; 63 g ai/ha) | ECHCG phytotoxicity rating ([7]; 63 g ai/ha) | ECHCG phytotoxicity rating ([7]; 250 g ai/ha) | DIGSA phytotoxicity rating ([10]; 63 g ai/ha) | phytotoxicity rating RICE (crop damage) ([13]; 63 g ai/ha) | phytotoxicity rating CORN (crop damage) ([14]; 63 g ai/ha) | phytotoxicity rating CORN (crop damage) ([14]; 250 g ai/ha) | phytotoxicity rating ECHCG ([17]; 63 g ai/ha)
40: CASOB phytotoxicity rating ([11]; 250 g ai/ha) | CHEAL phytotoxicity rating ([12]; 63 g ai/ha)
30: AMARE phytotoxicity rating ([4]; 63 g ai/ha) | CASOB phytotoxicity rating ([11]; 63 g ai/ha) | phytotoxicity rating SORHA ([15]; 250 g ai/ha) | phytotoxicity rating SETVI ([16]; 63 g ai/ha) | phytotoxicity rating CASOB ([21]; 250 g ai/ha)
100: phytotoxicity rating AMARE ([3]; 250 g ai/ha) | ABUTH phytotoxicity rating ([8]; 250 g ai/ha) | IPOHE phytotoxicity rating ([9]; 250 g ai/ha) | phytotoxicity rating ABUTH ([18]; 250 g ai/ha) | phytotoxicity rating CHEAL ([22]; 250 g ai/ha)
70: phytotoxicity rating CHEAL ([22]; 63 g ai/ha)

COc1c(Br)cc(F)c(-n2c(=O)cc(C(F)(F)F)n(C)c2=O)c1NC(=O)C=Cc1ccccc1 [2-175]
10: CORN phytotoxicity rating (crop damage) ([2]; 63 g ai/ha) | CORN phytotoxicity rating (crop damage) ([2]; 250 g ai/ha) | SORHA phytotoxicity rating ([5]; 250 g ai/ha) | DIGSA phytotoxicity rating ([10]; 250 g ai/ha)
70: phytotoxicity rating IPOHE ([19]; 63 g ai/ha)
30: phytotoxicity rating SORHA ([15]; 250 g ai/ha) | phytotoxicity rating CASOB ([21]; 63 g ai/ha) | phytotoxicity rating CASOB ([21]; 250 g ai/ha)
50: RICE phytotoxicity rating (crop damage) ([1]; 63 g ai/ha) | phytotoxicity rating IPOHE ([19]; 250 g ai/ha)
60: phytotoxicity rating SETVI ([16]; 250 g ai/ha) | phytotoxicity rating DIGSA ([20]; 250 g ai/ha)
20: SETVI phytotoxicity rating ([6]; 250 g ai/ha) | ECHCG phytotoxicity rating ([7]; 250 g ai/ha) | phytotoxicity rating RICE (crop damage) ([13]; 63 g ai/ha)
80: RICE phytotoxicity rating (crop damage) ([1]; 250 g ai/ha)
100: phytotoxicity rating AMARE ([3]; 63 g ai/ha) | phytotoxicity rating AMARE ([3]; 250 g ai/ha) | AMARE phytotoxicity rating ([4]; 63 g ai/ha) | AMARE phytotoxicity rating ([4]; 250 g ai/ha) | ABUTH phytotoxicity rating ([8]; 63 g ai/ha) | ABUTH phytotoxicity rating ([8]; 250 g ai/ha) | IPOHE phytotoxicity rating ([9]; 63 g ai/ha) | IPOHE phytotoxicity rating ([9]; 250 g ai/ha) | CASOB phytotoxicity rating ([11]; 63 g ai/ha) | CASOB phytotoxicity rating ([11]; 250 g ai/ha) | CHEAL phytotoxicity rating ([12]; 63 g ai/ha) | CHEAL phytotoxicity rating ([12]; 250 g ai/ha) | phytotoxicity rating ABUTH ([18]; 63 g ai/ha) | phytotoxicity rating ABUTH ([18]; 250 g ai/ha) | phytotoxicity rating CHEAL ([22]; 63 g ai/ha) | phytotoxicity rating CHEAL ([22]; 250 g ai/ha)
40: phytotoxicity rating RICE (crop damage) ([13]; 250 g ai/ha) | phytotoxicity rating ECHCG ([17]; 250 g ai/ha)
0: SORHA phytotoxicity rating ([5]; 63 g ai/ha) | SETVI phytotoxicity rating ([6]; 63 g ai/ha) | ECHCG phytotoxicity rating ([7]; 63 g ai/ha) | DIGSA phytotoxicity rating ([10]; 63 g ai/ha) | phytotoxicity rating CORN (crop damage) ([14]; 63 g ai/ha) | phytotoxicity rating CORN (crop damage) ([14]; 250 g ai/ha) | phytotoxicity rating SORHA ([15]; 63 g ai/ha) | phytotoxicity rating SETVI ([16]; 63 g ai/ha) | phytotoxicity rating ECHCG ([17]; 63 g ai/ha) | phytotoxicity rating DIGSA ([20]; 63 g ai/ha)
